# Test results as given in patent US6251894A, “1-(1,2-disubstituted piperidinyl)-4 (fused imidazole)-piperidine derivatives” (Janssen Pharmaceuticals N.V., priority 1995, dated 2001).
# Tested on: Substance P Induced Plasma Extravasation
# Assay: Antagonism of substance P induced plasma extravasation in guinea-pigs
# Assay type: in vivo, guinea-pig
# Details: Cavia porcellus, sc, 10 min; s.c., 1 hour prior to substance P; conjunctiva; read-out: lowest active dose (LAD), conjunctiva
# Protocol: Antagonism of Substance P Induced Plasma Extravasation in Guinea-pigs
# Plasma travasation was induced by injection of substance P (2 mg/kg) in the femoral artery of female guinea-pigs. Evans Blue dye (30 mg/kg) was injected simultaneously. The test compound or solvent was administered subcutaneous (s.c.) or orally (p.o.) 1 hour prior to substance P injection. 10 minutes after challenge, the animals were checked for blue colouring (a direct measure for plasma extravasation) of the nose, the forepaws, and the conjunctiva. 30 minutes after challenge, the animals were sacrificed by CO2 gas inhalation and checked for blue colouring of the trachea and the urinary bladder. […]
row,SMILES,minimal effective dose
1,O=C(c1cc(C(F)(F)F)cc(C(F)(F)F)c1)N1CC[C@@H](N2CCC3(CC2)c2ccccc2CCn2ccnc23)C[C@@H]1Cc1ccccc1 (relative stereo) [Compound 118],10 mg/kg
2,O=C(c1cc(C(F)(F)F)cc(C(F)(F)F)c1)N1CC[C@H](N2CCC3(CC2)c2ccccc2CCn2ccnc23)C[C@@H]1Cc1ccccc1 (relative stereo) [Compound 117],2.5 mg/kg

# Same assay, conditions: Cavia porcellus, sc, 10 min; s.c., 1 hour prior to substance P; forepaws; read-out: lowest active dose (LAD), forepaws
row,SMILES,minimal effective dose
1,O=C(c1cc(C(F)(F)F)cc(C(F)(F)F)c1)N1CC[C@@H](N2CCC3(CC2)c2ccccc2CCn2ccnc23)C[C@@H]1Cc1ccccc1 (relative stereo) [Compound 118],10 mg/kg
2,O=C(c1cc(C(F)(F)F)cc(C(F)(F)F)c1)N1CC[C@H](N2CCC3(CC2)c2ccccc2CCn2ccnc23)C[C@@H]1Cc1ccccc1 (relative stereo) [Compound 117],2.5 mg/kg

# Same assay, conditions: Cavia porcellus, sc, 10 min; s.c., 1 hour prior to substance P; nose; read-out: lowest active dose (LAD), nose
row,SMILES,minimal effective dose
1,O=C(c1cc(C(F)(F)F)cc(C(F)(F)F)c1)N1CC[C@@H](N2CCC3(CC2)c2ccccc2CCn2ccnc23)C[C@@H]1Cc1ccccc1 (relative stereo) [Compound 118],10 mg/kg
2,O=C(c1cc(C(F)(F)F)cc(C(F)(F)F)c1)N1CC[C@H](N2CCC3(CC2)c2ccccc2CCn2ccnc23)C[C@@H]1Cc1ccccc1 (relative stereo) [Compound 117],2.5 mg/kg

# Same assay, conditions: Cavia porcellus, sc, 0.5 h; s.c., 1 hour prior to substance P; trachea; read-out: lowest active dose (LAD), trachea
row,SMILES,minimal effective dose
1,O=C(c1cc(C(F)(F)F)cc(C(F)(F)F)c1)N1CC[C@@H](N2CCC3(CC2)c2ccccc2CCn2ccnc23)C[C@@H]1Cc1ccccc1 (relative stereo) [Compound 118],10 mg/kg
2,O=C(c1cc(C(F)(F)F)cc(C(F)(F)F)c1)N1CC[C@H](N2CCC3(CC2)c2ccccc2CCn2ccnc23)C[C@@H]1Cc1ccccc1 (relative stereo) [Compound 117],40 mg/kg

# Same assay, conditions: Cavia porcellus, sc, 0.5 h; s.c., 1 hour prior to substance P; urinary bladder; read-out: lowest active dose (LAD), urinary bladder
row,SMILES,minimal effective dose
1,O=C(c1cc(C(F)(F)F)cc(C(F)(F)F)c1)N1CC[C@@H](N2CCC3(CC2)c2ccccc2CCn2ccnc23)C[C@@H]1Cc1ccccc1 (relative stereo) [Compound 118],10 mg/kg
2,O=C(c1cc(C(F)(F)F)cc(C(F)(F)F)c1)N1CC[C@H](N2CCC3(CC2)c2ccccc2CCn2ccnc23)C[C@@H]1Cc1ccccc1 (relative stereo) [Compound 117],10 mg/kg

# Tested on: Substance P Induced Relaxation of the Pig Coronary Arteries
# Assay: Antagonism of substance P induced relaxation of the pig coronary arteries
# Details: test compound concentration 3 × 10^-8 (unit not given), 30 min incubation
# Protocol: Antagonism of Substance P Induced Relaxation of the Pig Coronary Arteries
# Segments of coronary arteries taken from pigs (killed by injection of an overdose of sodium pentobarbital) were inverted and mounted for recording of isometric tension in organ baths (volume 20 ml) with the endothelium at the outside. The preparations were bathed in Krebs-Henseleit solution. The solution was kept at 37° C. and gassed with a mixture of O2 /CO2 (95/5). After stabilisation of the preparations, prostaglandin F2α (10^-5 M) was administered to induce a contraction. This was repeated until contractile responses became stable. Then prostaglandin F2α was again administered and substance P (3×10^-10 M and 10^-9 M cumulatively) was added. Substance P induced endothelium dependent relaxations. After washing away the agonists, a known concentration of a compound of formula (I) was added. After an incubation period of 30 minutes, prostaglandin F2α (10^-5 M) and the same concentrations of substance P as described above were again administered in the presence of the compound to be tested.
row,SMILES,% inhibition of the response to 10^-9 M substance P
1,O=C(c1cc(C(F)(F)F)cc(C(F)(F)F)c1)N1CCC(N2CCC(C3c4ccccc4CCn4c3nc3ccccc34)CC2)CC1Cc1ccccc1 (stereo not drawn) [Compound 12],93.2%

# Same assay, conditions: test compound concentration 3 × 10^-9 (unit not given), 30 min incubation
row,SMILES,% inhibition of the response to 10^-9 M substance P
1,Cc1cc(C)cc(C(=O)N2CC[C@H](N3CCC(=C4c5ccccc5CCn5c(Cl)cnc54)CC3)C[C@@H]2Cc2ccccc2)c1 (relative stereo) [Compound 43],16%
2,O=C(c1cccs1)N1CCC(N2CCC(C3c4ccccc4Cn4c3nc3ccccc34)CC2)CC1Cc1ccccc1 (stereo not drawn) [Compound 91],9.2%
3,Cc1ccc2c(c1)CCn1ccnc1C2=C1CCN([C@H]2CCN(C(=O)c3cc(C(F)(F)F)cc(C(F)(F)F)c3)[C@H](Cc3ccccc3)C2)CC1 (relative stereo) [Compound 51],86.3%
4,Cc1cc(C)cc(C(=O)N2CCC(N3CCC(C4c5ccccc5Cn5c4nc4ccccc45)CC3)CC2Cc2ccccc2)c1 (stereo not drawn) [Compound 69],8%
5,O=C(c1ccccc1)N1CCC(N2CCC(C3c4ccccc4Cn4c3nc3ccccc34)CC2)CC1Cc1ccccc1 (stereo not drawn) [Compound 73],2.8%
6,O=C(Nc1cc(C(F)(F)F)cc(C(F)(F)F)c1)N1CC[C@@H](N2CCC(C3c4ccccc4Cn4c3nc3ccccc34)CC2)C[C@@H]1Cc1ccccc1 (stereo partly drawn) [Compound 100],13.9%
7,Cc1cc(C)cc(C(=O)N2CC[C@H](N3CCC(=C4c5ccsc5CCn5ccnc54)CC3)C[C@@H]2Cc2ccccc2)c1 (relative stereo) [Compound 38],27.1%
8,O=C(c1ccc2ccccc2c1)N1CCC(N2CCC(C3c4ccccc4Cn4c3nc3ccccc34)CC2)CC1Cc1ccccc1 (stereo not drawn) [Compound 92],6.7%
9,Cc1cc(C)cc(C(=O)N2CC[C@H](N3CCC(=C4c5ccccc5CCn5c(Cl)cnc54)CC3)C[C@H]2Cc2ccccc2)c1 (relative stereo) [Compound 44],63.9%
10,COC(=O)c1cnc2n1CCc1ccsc1C2=C1CCN([C@@H]2CCN(C(=O)c3cc(C)cc(C)c3)[C@@H](Cc3ccccc3)C2)CC1 (relative stereo) [Compound 36],23.7%
11,O=C(c1cc2cc(F)ccc2[nH]1)N1CC[C@H](N2CCC(=C3c4ccccc4CCn4ccnc43)CC2)C[C@@H]1Cc1ccccc1 (relative stereo) [Compound 89],1.1%
12,"O=C(c1cc(C(F)(F)F)cc(C(F)(F)F)c1)N1CC[C@@H](N2CCC(C3c4ccccc4CCn4c3nc3ccccc34)CC2)C[C@@H]1Cc1ccc(Cl)c(Cl)c1 (mixture of isomers) [Compound 63, (±)-trans-1-[3,5-bis(trifluoromethyl)benzoyl]-2-[(3,4-dichlorophenyl)methyl]-4-[4-(11,12-dihydro-6H-benzimidazo[2,1-b][3]benzazepin-6-yl)-1-piperidinyl]piperidine]",61.4%
13,Cc1cc(C)cc(C(=O)N2CCC(N3CCC(C4c5ccccc5CCn5c4nc4ccccc45)CC3)CC2Cc2ccccc2)c1 (stereo not drawn) [Compound 65],27.3%
14,Cc1cc(C)cc(C(=O)N2CCC(N3CCC(=C4c5ccccc5CCn5c(C)cnc54)CC3)CC2Cc2ccccc2)c1 (stereo not drawn) [Compound 28],37.4%
15,O=C(c1cnc2ccccc2n1)N1CCC(N2CCC(C3c4ccccc4Cn4c3nc3ccccc34)CC2)CC1Cc1ccccc1 (stereo not drawn) [Compound 93],3.1%
16,Cc1cc(C)cc(C(=O)N2CCC(N3CCC(=C4c5ccccc5OCn5ccnc54)CC3)CC2Cc2ccccc2)c1 (stereo not drawn) [Compound 104],83.0%
17,Cc1cn2c(n1)C(=C1CCN([C@H]3CCN(C(=O)c4cc(C(F)(F)F)cc(C(F)(F)F)c4)[C@@H](Cc4ccccc4)C3)CC1)c1ccn(C)c1CC2 (relative stereo) [Compound 59],76.5%
18,O=C(c1ccc2ccccc2c1)N1CC[C@H](N2CCC(=C3c4ccccc4CCn4ccnc43)CC2)C[C@@H]1Cc1ccccc1 (relative stereo) [Compound 84],2.4%
19,O=C(c1cc(C(F)(F)F)cc(C(F)(F)F)c1)N1CCC(N2CCC(=C3c4ccc(Cl)cc4CCn4ccnc43)CC2)CC1Cc1ccccc1 (stereo not drawn) [Compound 32],71.6%

row,SMILES,% inhibition of the response to 10^-9 M substance P
1,Cc1cc(C)cc(C(=O)N2CC[C@H](N3CCC(=C4c5ccccc5CCn5c4nc(CO)c5CO)CC3)C[C@@H]2Cc2ccccc2)c1 (relative stereo) [Compound 61],7.5%
2,Cc1c(C(=O)N2CC[C@@H](N3CCC(C4c5ccccc5Cn5c4nc4ccccc45)CC3)C[C@@H]2Cc2ccccc2)oc2ccccc12 (stereo partly drawn) [Compound 101],11.8%
3,O=C(c1ccc2ncsc2c1)N1CC[C@@H](N2CCC(C3c4ccccc4Cn4c3nc3ccccc34)CC2)C[C@@H]1Cc1ccccc1 (stereo partly drawn) [Compound 102],17%
4,Cc1cc(C(=O)N2CC[C@@H](N3CCC(C4c5ccccc5Cn5c4nc4ccccc45)CC3)C[C@@H]2Cc2ccccc2)no1 (stereo partly drawn) [Compound 97],5.8%
5,O=C(c1cc(C(F)(F)F)cc(C(F)(F)F)c1)N1CCC(N2CCC(C3c4ccccc4Cn4ccnc43)CC2)CC1Cc1ccccc1 (stereo not drawn) [Compound 115],60.2%
6,Cc1cc(C)cc(C(=O)N2CC[C@H](N3CCC(=C4c5ccccc5CCn5c4nc4ccccc45)CC3)C[C@@H]2Cc2ccccc2)c1 (relative stereo) [Compound 45],7.9%
7,O=C(c1cccc(C(F)(F)F)c1)N1CCC(N2CCC(C3c4ccccc4Cn4c3nc3ccccc34)CC2)CC1Cc1ccccc1 (stereo not drawn) [Compound 74],8.6%
8,O=C(c1ccccc1)N1CC[C@@H](N2CCC(C3c4ccccc4Cn4c3nc3ccccc34)CC2)C[C@@H]1Cc1ccccc1 (stereo partly drawn) [Compound 75],13.7%
9,Cc1cc(C)cc(C(=O)N2CC[C@H](N3CCC(C4c5ccccc5Cn5c4nc4ccccc45)CC3)C[C@H]2Cc2ccccc2)c1 (stereo partly drawn) [Compound 70],31.2%
10,O=C(c1ccc2[nH]ccc2c1)N1CC[C@@H](N2CCC(=C3c4ccccc4CCn4ccnc43)CC2)C[C@@H]1Cc1ccccc1 (relative stereo) [Compound 81],2.2%
11,Cc1ccc2c(c1)CCn1ccnc1C2=C1CCN([C@H]2CCN(C(=O)c3cc(C(F)(F)F)cc(C(F)(F)F)c3)[C@@H](Cc3ccccc3)C2)CC1 (relative stereo) [Compound 50],25%
12,O=C(c1ccc2ccccc2c1)N1CC[C@@H](N2CCC(C3c4ccccc4Cn4c3nc3ccccc34)CC2)C[C@@H]1Cc1ccccc1 (stereo partly drawn) [Compound 98],23.2%
13,Cc1cc(C)cc(C(=O)N2CCC(N3CCC(=C4c5ccn(C)c5CCn5cc(C)nc54)CC3)CC2Cc2ccccc2)c1 (stereo not drawn) [Compound 30],15.3%
14,O=C(c1ccc(Cl)c(Cl)c1)N1CC[C@@H](N2CCC(C3c4ccccc4Cn4c3nc3ccccc34)CC2)C[C@@H]1Cc1ccccc1 (stereo partly drawn) [Compound 103],8.3%
15,CC(C(=O)N1CC[C@@H](N2CCC(C3c4ccccc4Cn4c3nc3ccccc34)CC2)C[C@@H]1Cc1ccccc1)c1ccccc1 (stereo partly drawn) [Compound 99],18.2%
16,O=C(c1cc(C(F)(F)F)cc(C(F)(F)F)c1)N1CC[C@@H](N2CCC(=C3c4ccccc4CCn4ccnc43)CC2)C[C@H]1Cc1ccccc1 (relative stereo) [Compound 23],13.4%
17,O=C(c1cc(C(F)(F)F)cc(C(F)(F)F)c1)N1CC[C@H](N2CCC(C3c4ccccc4CCn4c3nc3ccccc34)CC2)C[C@H]1Cc1ccc(F)c(F)c1 (stereo partly drawn) [Compound 68],93.1%
18,Cc1cc(C)cc(C(=O)N2CC[C@H](N3CCC(C4c5ccccc5CCn5c4nc4ccccc45)CC3)C[C@H]2Cc2ccccc2)c1 (stereo partly drawn) [Compound 66],56.6%
